Key:
Assay in all cases: KINOMEscan competition binding
ICK (human) = ICK (human) (UniProt Q9UPZ9)
MAST1 (human) = MAST1 (human) (UniProt Q9Y2H9); conditions: compound 1.0 µM
BRSK1 (human) = BRSK1 (human) (UniProt Q8TDC3); conditions: compound 1.0 µM
PRKACB (human) = PRKACB (human) (UniProt P22694); conditions: compound 1.0 µM
ERBB4 (human) = ERBB4 (human) (UniProt Q15303); conditions: compound 1.0 µM
FER (human) = FER (human) (UniProt P16591); conditions: compound 1.0 µM
[1] = test system: EGFR (human), P00533 [T790M/L858R]; conditions: compound 1.0 µM
FES (human) = FES (human) (UniProt P07332); conditions: compound 1.0 µM
IRAK3 (human) = IRAK3 (human) (UniProt Q9Y616); conditions: compound 1.0 µM
SRPK1 (human) = SRPK1 (human) (UniProt Q96SB4); conditions: compound 1.0 µM
NUAK2 (human) = NUAK2 (human) (UniProt Q9H093); conditions: compound 1.0 µM
PDGFRB (human) = PDGFRB (human) (UniProt P09619); conditions: compound 1.0 µM
TLK1 (human) = TLK1 (human) (UniProt Q9UKI8); conditions: compound 1.0 µM
[2] = test system: PIK3CA (human), P42336 [E545K]; conditions: compound 1.0 µM
[3] = test system: KIT (human), P10721 [V559D]; conditions: compound 1.0 µM
TYRO3 (human) = TYRO3 (human) (UniProt Q06418); conditions: compound 1.0 µM
WEE1 (human) = WEE1 (human) (UniProt P30291); conditions: compound 1.0 µM
MST4 (human) = MST4 (human) (UniProt Q9P289); conditions: compound 1.0 µM
TGFBR1 (human) = TGFBR1 (human) (UniProt P36897); conditions: compound 1.0 µM
CAMKK2 (human) = CAMKK2 (human) (UniProt Q96RR4); conditions: compound 1.0 µM
NEK1 (human) = NEK1 (human) (UniProt Q96PY6); conditions: compound 1.0 µM
STK17A (human) = STK17A (human) (UniProt Q9UEE5)
GRK4 (human) = GRK4 (human) (UniProt P32298); conditions: compound 1.0 µM
[4] = target: TYK2 JH2 pseudokinase (human) (UniProt P29597); conditions: compound 1.0 µM
MUSK (human) = MUSK (human) (UniProt O15146); conditions: compound 1.0 µM
EPHB3 (human) = EPHB3 (human) (UniProt P54753); conditions: compound 1.0 µM
FRK (human) = FRK (human) (UniProt P42685); conditions: compound 1.0 µM
MAP3K2 (human) = MAP3K2 (human) (UniProt Q9Y2U5); conditions: compound 1.0 µM
[5] = target: JAK1 JH2 pseudokinase (human) (UniProt P23458); conditions: compound 1.0 µM
YES1 (human) = YES1 (human) (UniProt P07947); conditions: compound 1.0 µM
AXL (human) = AXL (human) (UniProt P30530); conditions: compound 1.0 µM
MAPKAPK2 (human) = MAPKAPK2 (human) (UniProt P49137); conditions: compound 1.0 µM
PLK2 (human) = PLK2 (human) (UniProt Q9NYY3); conditions: compound 1.0 µM
EPHA8 (human) = EPHA8 (human) (UniProt P29322); conditions: compound 1.0 µM
BLK (human) = BLK (human) (UniProt P51451); conditions: compound 1.0 µM
CAMK1D (human) = CAMK1D (human) (UniProt Q8IU85); conditions: compound 1.0 µM
[6] = test system: FLT3 (human), P36888 [D835H]; conditions: compound 1.0 µM
MYLK3 (human) = MYLK3 (human) (UniProt Q32MK0); conditions: compound 1.0 µM
NEK5 (human) = NEK5 (human) (UniProt Q6P3R8); conditions: compound 1.0 µM
LIMK1 (human) = LIMK1 (human) (UniProt P53667); conditions: compound 1.0 µM
AKT3 (human) = AKT3 (human) (UniProt Q9Y243); conditions: compound 1.0 µM
RAF1 (human) = RAF1 (human) (UniProt P04049); conditions: compound 1.0 µM
CDK3 (human) = CDK3 (human) (UniProt Q00526); conditions: compound 1.0 µM

Sequence of STK17A (human) (Q9UEE5 whole entry, looked up): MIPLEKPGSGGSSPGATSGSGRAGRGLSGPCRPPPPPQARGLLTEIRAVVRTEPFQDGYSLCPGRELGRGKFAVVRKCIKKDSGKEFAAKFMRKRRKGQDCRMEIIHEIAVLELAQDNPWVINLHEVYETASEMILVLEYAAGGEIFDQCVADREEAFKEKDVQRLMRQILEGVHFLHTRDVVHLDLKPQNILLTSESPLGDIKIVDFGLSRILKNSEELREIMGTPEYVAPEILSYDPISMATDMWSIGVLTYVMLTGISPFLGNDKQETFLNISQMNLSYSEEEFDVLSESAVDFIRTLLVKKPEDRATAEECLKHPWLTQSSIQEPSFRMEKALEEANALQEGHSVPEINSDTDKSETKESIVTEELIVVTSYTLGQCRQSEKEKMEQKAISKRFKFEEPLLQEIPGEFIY
Sequence of ICK (human) (Q9UPZ9 whole entry, looked up): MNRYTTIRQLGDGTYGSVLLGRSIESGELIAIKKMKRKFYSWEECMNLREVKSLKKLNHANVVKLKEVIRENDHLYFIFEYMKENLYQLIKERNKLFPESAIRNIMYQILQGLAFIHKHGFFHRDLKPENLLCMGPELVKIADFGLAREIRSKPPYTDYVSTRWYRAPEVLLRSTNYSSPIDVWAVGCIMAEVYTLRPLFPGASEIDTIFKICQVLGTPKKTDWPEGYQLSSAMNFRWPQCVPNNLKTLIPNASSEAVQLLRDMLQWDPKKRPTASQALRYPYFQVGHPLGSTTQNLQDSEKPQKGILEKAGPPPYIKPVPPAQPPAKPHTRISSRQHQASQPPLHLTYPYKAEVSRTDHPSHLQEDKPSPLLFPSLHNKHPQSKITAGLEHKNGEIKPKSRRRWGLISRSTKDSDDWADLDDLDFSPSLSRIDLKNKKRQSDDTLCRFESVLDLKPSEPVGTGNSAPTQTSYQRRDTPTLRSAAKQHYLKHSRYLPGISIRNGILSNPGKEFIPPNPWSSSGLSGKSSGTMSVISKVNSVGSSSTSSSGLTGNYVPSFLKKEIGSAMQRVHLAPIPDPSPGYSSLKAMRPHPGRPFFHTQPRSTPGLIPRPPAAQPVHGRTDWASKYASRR
Sequence of TYRO3 (human) (Q06418 whole entry, looked up): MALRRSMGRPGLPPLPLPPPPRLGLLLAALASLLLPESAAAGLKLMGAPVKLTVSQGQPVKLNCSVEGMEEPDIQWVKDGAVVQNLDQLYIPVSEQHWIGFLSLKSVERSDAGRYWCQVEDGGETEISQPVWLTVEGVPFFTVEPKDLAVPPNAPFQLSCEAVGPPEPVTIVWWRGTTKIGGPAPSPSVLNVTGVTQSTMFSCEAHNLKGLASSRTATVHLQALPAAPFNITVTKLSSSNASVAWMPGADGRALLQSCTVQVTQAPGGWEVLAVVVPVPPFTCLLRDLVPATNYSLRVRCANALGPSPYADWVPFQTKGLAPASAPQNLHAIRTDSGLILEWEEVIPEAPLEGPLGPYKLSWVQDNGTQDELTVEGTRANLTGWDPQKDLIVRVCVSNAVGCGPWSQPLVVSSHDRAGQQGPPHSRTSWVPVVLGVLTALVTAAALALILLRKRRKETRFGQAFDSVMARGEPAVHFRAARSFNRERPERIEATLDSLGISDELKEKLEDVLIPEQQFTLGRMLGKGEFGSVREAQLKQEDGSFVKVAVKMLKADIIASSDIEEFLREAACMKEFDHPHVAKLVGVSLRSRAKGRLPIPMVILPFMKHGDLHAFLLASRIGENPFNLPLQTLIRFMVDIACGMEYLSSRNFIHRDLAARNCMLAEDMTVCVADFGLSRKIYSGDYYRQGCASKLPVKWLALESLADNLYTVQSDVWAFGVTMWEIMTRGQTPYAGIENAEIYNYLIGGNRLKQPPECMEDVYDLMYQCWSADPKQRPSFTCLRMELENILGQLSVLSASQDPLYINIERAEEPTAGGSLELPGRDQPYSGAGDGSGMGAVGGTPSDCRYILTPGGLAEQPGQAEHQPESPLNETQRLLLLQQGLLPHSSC
Sequence of PLK2 (human) (Q9NYY3 whole entry, looked up): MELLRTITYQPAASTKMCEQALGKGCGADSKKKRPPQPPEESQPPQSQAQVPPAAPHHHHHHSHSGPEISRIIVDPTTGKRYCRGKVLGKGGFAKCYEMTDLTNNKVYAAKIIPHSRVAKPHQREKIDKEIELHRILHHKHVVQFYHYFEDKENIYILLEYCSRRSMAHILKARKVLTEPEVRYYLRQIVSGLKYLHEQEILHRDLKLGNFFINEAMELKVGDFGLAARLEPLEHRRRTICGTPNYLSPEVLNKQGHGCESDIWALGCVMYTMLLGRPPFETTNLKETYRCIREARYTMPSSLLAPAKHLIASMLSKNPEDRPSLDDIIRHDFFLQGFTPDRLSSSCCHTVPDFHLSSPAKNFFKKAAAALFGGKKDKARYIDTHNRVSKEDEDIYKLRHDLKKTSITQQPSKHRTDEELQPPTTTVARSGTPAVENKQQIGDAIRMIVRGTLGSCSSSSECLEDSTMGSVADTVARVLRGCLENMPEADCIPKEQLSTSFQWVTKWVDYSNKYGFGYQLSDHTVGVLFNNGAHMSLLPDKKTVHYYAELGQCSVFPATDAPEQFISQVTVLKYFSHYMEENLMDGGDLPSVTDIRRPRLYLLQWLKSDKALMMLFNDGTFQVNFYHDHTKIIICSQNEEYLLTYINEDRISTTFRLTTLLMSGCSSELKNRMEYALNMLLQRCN
Sequence of MAPKAPK2 (human) (P49137 whole entry, looked up): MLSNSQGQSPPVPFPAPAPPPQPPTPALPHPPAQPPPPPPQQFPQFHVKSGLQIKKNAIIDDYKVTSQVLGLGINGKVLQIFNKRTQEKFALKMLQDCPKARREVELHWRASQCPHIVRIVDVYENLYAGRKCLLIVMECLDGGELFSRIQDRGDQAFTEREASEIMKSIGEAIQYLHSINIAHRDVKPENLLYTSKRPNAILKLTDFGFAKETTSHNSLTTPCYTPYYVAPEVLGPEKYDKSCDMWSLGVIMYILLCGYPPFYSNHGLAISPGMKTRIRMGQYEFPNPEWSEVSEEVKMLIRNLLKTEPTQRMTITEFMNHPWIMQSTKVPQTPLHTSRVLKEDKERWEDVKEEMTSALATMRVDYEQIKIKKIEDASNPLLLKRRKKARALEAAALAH
Sequence of CAMK1D (human) (Q8IU85 whole entry, looked up): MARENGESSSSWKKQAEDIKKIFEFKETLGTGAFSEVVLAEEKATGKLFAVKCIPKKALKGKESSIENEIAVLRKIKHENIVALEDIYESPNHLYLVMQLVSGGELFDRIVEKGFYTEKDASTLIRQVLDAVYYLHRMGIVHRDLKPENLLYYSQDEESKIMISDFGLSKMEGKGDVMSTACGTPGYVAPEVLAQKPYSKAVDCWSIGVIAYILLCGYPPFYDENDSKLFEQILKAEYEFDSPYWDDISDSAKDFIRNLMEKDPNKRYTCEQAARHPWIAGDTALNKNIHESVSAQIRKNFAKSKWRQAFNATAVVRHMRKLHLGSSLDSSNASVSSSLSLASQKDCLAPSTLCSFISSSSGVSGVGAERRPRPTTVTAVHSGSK
Sequence of FER (human) (P16591 whole entry, looked up): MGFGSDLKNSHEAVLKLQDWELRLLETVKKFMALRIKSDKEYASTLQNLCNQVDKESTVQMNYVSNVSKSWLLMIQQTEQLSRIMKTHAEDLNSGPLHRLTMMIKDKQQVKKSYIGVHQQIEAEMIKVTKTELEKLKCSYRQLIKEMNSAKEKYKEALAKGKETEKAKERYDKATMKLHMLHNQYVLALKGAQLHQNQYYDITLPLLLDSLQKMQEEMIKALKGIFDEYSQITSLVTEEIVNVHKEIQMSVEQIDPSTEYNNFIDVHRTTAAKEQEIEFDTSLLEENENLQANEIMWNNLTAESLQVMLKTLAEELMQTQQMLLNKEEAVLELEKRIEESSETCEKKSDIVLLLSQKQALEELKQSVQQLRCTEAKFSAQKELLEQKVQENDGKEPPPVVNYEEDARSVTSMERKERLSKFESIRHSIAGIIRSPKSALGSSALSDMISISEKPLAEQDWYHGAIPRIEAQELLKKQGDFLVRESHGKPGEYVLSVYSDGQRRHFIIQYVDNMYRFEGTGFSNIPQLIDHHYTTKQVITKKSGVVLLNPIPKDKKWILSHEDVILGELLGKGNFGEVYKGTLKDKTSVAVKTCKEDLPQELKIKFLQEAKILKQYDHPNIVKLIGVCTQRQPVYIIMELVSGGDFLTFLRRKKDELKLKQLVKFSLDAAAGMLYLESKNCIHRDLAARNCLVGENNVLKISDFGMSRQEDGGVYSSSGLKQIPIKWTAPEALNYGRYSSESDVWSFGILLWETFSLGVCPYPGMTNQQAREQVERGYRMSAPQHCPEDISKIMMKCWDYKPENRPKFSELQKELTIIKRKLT
Sequence of LIMK1 (human) (P53667 whole entry, looked up): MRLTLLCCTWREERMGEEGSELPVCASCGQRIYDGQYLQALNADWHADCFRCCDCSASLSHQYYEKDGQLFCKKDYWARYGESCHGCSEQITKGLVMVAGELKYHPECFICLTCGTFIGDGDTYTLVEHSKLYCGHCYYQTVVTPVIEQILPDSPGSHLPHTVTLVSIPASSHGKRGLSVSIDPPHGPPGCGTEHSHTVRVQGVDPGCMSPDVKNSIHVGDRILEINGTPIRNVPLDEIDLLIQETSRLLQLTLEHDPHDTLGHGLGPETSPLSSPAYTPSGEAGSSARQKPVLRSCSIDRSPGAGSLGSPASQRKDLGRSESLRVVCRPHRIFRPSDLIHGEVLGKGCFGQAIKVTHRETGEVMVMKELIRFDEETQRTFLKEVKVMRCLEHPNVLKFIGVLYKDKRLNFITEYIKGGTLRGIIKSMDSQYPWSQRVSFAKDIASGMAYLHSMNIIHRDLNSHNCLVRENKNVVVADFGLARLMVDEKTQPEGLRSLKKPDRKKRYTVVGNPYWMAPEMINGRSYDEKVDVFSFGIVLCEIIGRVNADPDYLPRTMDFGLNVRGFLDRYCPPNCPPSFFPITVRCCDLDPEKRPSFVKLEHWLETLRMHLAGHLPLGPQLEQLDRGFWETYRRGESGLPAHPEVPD

Question: Which results are given for `CN(C)C/C=C/C(=O)Nc1cccc(C(=O)Nc2ccc(Nc3nccc(-c4cccnc4)n3)cc2)c1`?
Answer: Kd (ICK (human)): 54 nM; kinase still bound, per cent of control (ICK (human); compound 1.0 µM): 3.4%; kinase still bound, per cent of control (MAST1 (human)): 77%; kinase still bound, per cent of control (BRSK1 (human)): 85%; kinase still bound, per cent of control (PRKACB (human)): 100%; kinase still bound, per cent of control (ERBB4 (human)): 100%; kinase still bound, per cent of control (FER (human)): 100%; kinase still bound, per cent of control [1]: 100%; kinase still bound, per cent of control (FES (human)): 100%; kinase still bound, per cent of control (IRAK3 (human)): 20%; kinase still bound, per cent of control (SRPK1 (human)): 50%; kinase still bound, per cent of control (NUAK2 (human)): 31%; kinase still bound, per cent of control (PDGFRB (human)): 6%; kinase still bound, per cent of control (TLK1 (human)): 92%; kinase still bound, per cent of control [2]: 100%; kinase still bound, per cent of control [3]: 1%; kinase still bound, per cent of control (TYRO3 (human)): 87%; kinase still bound, per cent of control (WEE1 (human)): 84%; kinase still bound, per cent of control (MST4 (human)): 34%; kinase still bound, per cent of control (TGFBR1 (human)): 86%; kinase still bound, per cent of control (CAMKK2 (human)): 40%; kinase still bound, per cent of control (NEK1 (human)): 77%; Kd (STK17A (human)): 100 nM; kinase still bound, per cent of control (STK17A (human); compound 1.0 µM): 1.3%; kinase still bound, per cent of control (GRK4 (human)): 32%; kinase still bound, per cent of control [4]: 5.8%; kinase still bound, per cent of control (MUSK (human)): 94%; kinase still bound, per cent of control (EPHB3 (human)): 96%; kinase still bound, per cent of control (FRK (human)): 90%; kinase still bound, per cent of control (MAP3K2 (human)): 100%; kinase still bound, per cent of control [5]: 8.6%; kinase still bound, per cent of control (YES1 (human)): 98%; kinase still bound, per cent of control (AXL (human)): 100%; kinase still bound, per cent of control (MAPKAPK2 (human)): 100%; kinase still bound, per cent of control (PLK2 (human)): 74%; kinase still bound, per cent of control (EPHA8 (human)): 90%; kinase still bound, per cent of control (BLK (human)): 100%; kinase still bound, per cent of control (CAMK1D (human)): 100%; kinase still bound, per cent of control [6]: 29%; kinase still bound, per cent of control (MYLK3 (human)): 85%; kinase still bound, per cent of control (NEK5 (human)): 7.8%; kinase still bound, per cent of control (LIMK1 (human)): 71%; kinase still bound, per cent of control (AKT3 (human)): 100%; kinase still bound, per cent of control (RAF1 (human)): 100%; kinase still bound, per cent of control (CDK3 (human)): 100%

— the kinase profiling compilation of Christmann-Franck et al. (2016)
